From patent US7713969B2, “Compositions and methods for treatment of cancer” (ArQule, Inc., priority 2005, dated 2010)

Legend:
[1] = tested on: MDA-MB-231 cells or Paca-2 cells; assay: Cell survival in six-well plates, Wright-Giemsa stain (Example 77); type: cell-based; conditions: Homo sapiens; 0.1-2 μM, cultures observed 10-15 days; cell line of the IC50 not stated
Procedure: Exponentially growing MDA-MB-231 cells or Paca-2 cells were seeded at 1,000 cells per well in six-well plates and allowed to attach for 24 hours. MDA-MB-231 and Paca-2 cells were cultured in DMEM supplemented with 10% (v/v) fetal calf serum (FCS) and 5 ml Penicillin/Streptomycin at 37° C. in 5% CO2. MDA-MB-231 and Paca-2 were established estrogen receptor negative human breast cancer and pancreatic carcinoma cell lines, respectively. (±)-cis-3-(5,6-dihydro-4H-pyrrolo[3,2,1-ij]quinolin-1yl)-4(1H-indol-3-yl)pyrrolidine-2,5-dione or (±)-trans-3-(5,6-dihydro-4H-pyrrolo[3,2,1-ij]quinolin-1-yl)-4(1H-indol-3-yl)pyrrolidine-2,5-dione were each dissolved at a concentration of 10 mM in DMSO, and separately added to cells at a concentration of 0.1, 0.25, 0.5, 1 or 2 μM. Control plates received DMSO alone, at the same percentage of total culture volume as that administered in conjunction with the highest concentration of drug. Cell cultures were observed daily for 10-15 days, then fixed and stained with modified Wright-Giemsa stain (Sigma). Treatment with (±)-cis-3-(5,6-dihydro-4H-pyrrolo [3,2,1-ij]quinolin-1yl)-4(1H-indol-3-yl)pyrrolidine-2,5-dione or (±)-trans-3-(5,6-dihydro-4H-pyrrolo[3,2,1-ij]quinolin-1-yl)-4(1H-indol-3-yl)pyrrolidine-2,5-dione results in cell death of MDA-MB-231 cells or Paca-2 cells. See, e.g., FIG. 2.

MCF7 = assay: Cell viability MTS assay; type: cell-based, human; conditions: Homo sapiens, MCF7, 72 hours with compound
How it was run: (§1)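 Cells are seeded and incubated 16-24 hours, then given compound for 72 hours at 0.33% final DMSO. MTS and PMS are added for 4 hours, followed by SDS to 1.4%, and absorbance is read at 490 nm. IC50 marks a 50% drop in viable cells relative to DMSO-only wells.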

A549 = assay: Cell viability MTS assay; type: cell-based, human; conditions: Homo sapiens, A549, 72 hours with compound
How it was run: as §1

PC-3 = assay: Cell viability MTS assay; type: cell-based, human; conditions: Homo sapiens, PC-3, 72 hours with compound
How it was run: as §1

MDA-MB-231 = assay: Cell viability MTS assay; type: cell-based, human; conditions: Homo sapiens, MDA-MB-231, 72 hours with compound
How it was run: as §1

SK-MEL-28 = assay: Cell viability MTS assay; type: cell-based, human; conditions: Homo sapiens, SK-MEL-28, 72 hours with compound
How it was run: as §1

HT29 = assay: Cell viability MTS assay; type: cell-based, human; conditions: Homo sapiens, HT-29, 72 hours with compound
How it was run: as §1

DU-145 = assay: Cell viability MTS assay; type: cell-based, human; conditions: Homo sapiens, DU-145, 72 hours with compound
How it was run: as §1

SKOV-3 = assay: Cell viability MTS assay; type: cell-based, human; conditions: Homo sapiens, SK-OV-3, 72 hours with compound
How it was run: as §1

K562 = assay: Cell viability MTS assay; type: cell-based, human; conditions: Homo sapiens, K562, 72 hours with compound
How it was run: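 IC50 values reflect 50% loss of viable cells, measured as MTS absorbance at 490 nm. Compound was present for 72 hours, with a 4-hour MTS/PMS step ended by SDS.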

HCT-116 = assay: Cell viability MTS assay; type: cell-based, human; conditions: Homo sapiens, HCT-116, 72 hours with compound
How it was run: as §1

[2] = tested on: MDA-MB-231 human breast cancer xenograft; assay: Breast cancer xenograft model (Example 86); type: in vivo, mice
Procedure: MDA-MB-231 human breast cancer cells were inoculated subcutaneously into female athymic nude mice (8.0×10^6 cells/mouse) and allowed to form palpable tumors. Once the tumors reached approximately 60 mm^3, the animals were treated orally with (−)-trans-3-(5,6-dihydro-4H-pyrrolo[3,2,1-ij]quinolin-1-yl)-4(1H-indol-3-yl)pyrrolidine-2,5-dione at 200 mg/kg or vehicle control daily (5 consecutive days, followed by a 2 day dosing holiday). (−)-trans-3-(5,6-dihydro-4H-pyrrolo[3,2,1-ij]quinolin-1-yl)-4(1H-indol-3-yl)pyrrolidine-2,5-dione was formulated in PEG 400:20% Vitamin E TPGS (60:40). The animals received a total of 20 doses of (−)-trans-3-(5,6-dihydro-4H-pyrrolo[3,2,1-ij]quinolin-1-yl)-4(1H-indol-3-yl)pyrrolidine-2,5-dione or vehicle control. Tumors were measured throughout treatment and the post-treatment observation period. Each point represents the mean±SEM of ten tumors. (See FIG. 10)

Compound: O=C1NC(=O)[C@@H](c2cn3c4c(cccc24)CCC3)[C@@H]1c1c[nH]c2ccccc12 (racemic) [(±)-Trans-3-(5,6-dihydro-4H-pyrrolo[3,2,1-ij]quinolin-1-yl)-4(1H-indol-3-yl)pyrrolidine-2,5-dione]
- IC50 [1]: 500 nM
- IC50 (MCF7): > 100000 nM
- IC50 (A549): 10700 nM
- IC50 (PC-3): 4950 nM
- IC50 (MDA-MB-231): 3340 nM
- IC50 (SK-MEL-28): 13000 nM
- IC50 (HT29): 4550 nM
- IC50 (DU-145): 9610 nM
- IC50 (SKOV-3): 939 nM
- IC50 (K562): 424 nM
- IC50 (HCT-116): 1820 nM

Compound: O=C1NC(=O)C(c2cn3c4c(cccc24)CCC3)C1c1c[nH]c2ccccc12 (single isomer, unassigned; (-))
- change in body weight ([2]; 200 mg/kg oral administration): no significant change in body weight
- Tumor growth inhibition ([2]; 200 mg/kg orally, daily 5 days on/2 off, 20 doses): 79%
- IC50 (MCF7): > 100000 nM
- IC50 (A549): 5800 nM
- IC50 (PC-3): 1280 nM
- IC50 (MDA-MB-231): 2190 nM
- IC50 (SK-MEL-28): 8680 nM
- IC50 (HT29): 1950 nM
- IC50 (DU-145): 4000 nM
- IC50 (SKOV-3): 444 nM
- IC50 (K562): 294 nM
- IC50 (HCT-116): 812 nM
